Assay results published in PMC8553340, “USP28 deletion and small-molecule inhibition destabilizes c-MYC and elicits regression of squamous cell lung carcinoma” (eLife, 2021).

Target: T1, ubiquitin-specific protease 28 (USP28) (Homo sapiens, UniProt Q96RU2)
T1 construct: endogenous, NCI-H520 cell extracts and intact cells
T1 sequence (Q96RU2 1-1077): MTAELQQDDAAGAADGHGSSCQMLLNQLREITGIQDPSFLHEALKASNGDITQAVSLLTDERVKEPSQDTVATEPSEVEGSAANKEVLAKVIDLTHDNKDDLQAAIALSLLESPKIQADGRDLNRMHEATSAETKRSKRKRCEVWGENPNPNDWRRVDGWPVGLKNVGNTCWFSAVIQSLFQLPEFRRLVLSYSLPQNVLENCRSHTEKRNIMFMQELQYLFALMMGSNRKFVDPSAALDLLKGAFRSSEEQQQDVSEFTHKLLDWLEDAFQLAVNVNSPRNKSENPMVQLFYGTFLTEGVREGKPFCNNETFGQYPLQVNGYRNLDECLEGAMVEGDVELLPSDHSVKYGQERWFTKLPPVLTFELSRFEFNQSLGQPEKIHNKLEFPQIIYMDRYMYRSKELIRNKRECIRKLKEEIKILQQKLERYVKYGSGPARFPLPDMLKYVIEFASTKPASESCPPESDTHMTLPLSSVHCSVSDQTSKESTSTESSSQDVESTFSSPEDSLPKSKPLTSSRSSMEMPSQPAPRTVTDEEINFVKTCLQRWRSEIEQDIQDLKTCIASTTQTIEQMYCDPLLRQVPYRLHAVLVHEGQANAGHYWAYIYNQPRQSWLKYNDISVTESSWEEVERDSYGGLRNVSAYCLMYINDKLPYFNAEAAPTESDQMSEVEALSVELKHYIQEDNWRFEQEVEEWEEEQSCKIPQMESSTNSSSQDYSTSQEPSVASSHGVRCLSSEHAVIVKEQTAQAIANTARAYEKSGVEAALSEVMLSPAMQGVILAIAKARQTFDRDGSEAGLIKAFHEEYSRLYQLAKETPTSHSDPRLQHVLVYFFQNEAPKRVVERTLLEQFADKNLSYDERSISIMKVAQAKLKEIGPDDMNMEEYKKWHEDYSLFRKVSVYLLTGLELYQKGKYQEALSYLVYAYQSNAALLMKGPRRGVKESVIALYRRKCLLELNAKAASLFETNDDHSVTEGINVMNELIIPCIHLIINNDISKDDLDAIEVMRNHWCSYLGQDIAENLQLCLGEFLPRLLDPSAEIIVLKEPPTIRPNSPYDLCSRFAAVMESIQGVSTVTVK
Test: competition with HA-UbPA activity-based probe labelling (Western blot) in NCI-H520 extract and cells; ABPP mass spectrometry
Type: biochemical

How did the EC50 turn out when `Cc1ccc2c(N)c(C(=O)N[C@H]3CCc4cc(N5CC6CCC(C5)N6)ccc4C3)sc2n1` [FT206] was run?
The EC50 was 300 to 1000 nM.
